Here are results for one compound from patent publication US9388425B2, “Tunable genetic switch for regulating gene expression” (TRUSTEES OF BOSTON UNIVERSITY, priority 2006, dated 2016).

The data set concerns Rosa26 cells. The experiment in a line: Apoptosis and cell death, annexin V and propidium iodide staining, flow cytometry, Rosa26 cells. The data set is classed as cell-based, mouse. The settings on record: indicated levels of IPTG (0, 250 pM, 2.5 μM, 1 mM). As for the experimental part: Rosa26fibroblasts were obtained from embryonic day 14.5 Rosa26-R mice. The cells were maintained in embryonic fibroblast medium (high-glucose DMEM, 10% FBS, penicillin/streptomycin, L-glutamine, and sodium pyruvate) and grown in a humidified 5% CO2, 37CC incubator. These cells were transfected with 0.8 μg of LTRi-cre and LTRi-bax using Lipofectamine 2000 reagent (Invitrogen). The LTRi-cre cells were analyzed by β-galactosidase staining 48 hr after transfection. The LTRi-bax cells were stained and analyzed by flow cytometry 48 hr after transfection. […]
Cells were grown in 12-well plates, and 24 hr after plating, they were transfected with 0.8 μg of LTRi-bax using Lipofectamine 2000 reagent (Invitrogen) per the manufacturer's protocol and exposed to the indicated levels of IPTG. […] Annexin V has a high affinity for phosphatidylserine; therefore, annexin V conjugated with Alexa Fluor 488 can identify apoptotic cells by binding to phosphatidylserine and can be analyzed by flow cytometry measuring the fluorescence emission at 530 nm (FL1). […] It is impermeable to live and apoptotic cells but stains dead cells with red fluorescence. Dead cells appear red and can be analyzed by flow cytometry measuring the red florescence emission >575 nm (FL3). […]
For orientation: Flow cytometry measures light scatter and fluorescence of single cells or particles in a stream.

Take `CC(C)S[C@@H]1O[C@H](CO)[C@H](O)[C@H](O)[C@H]1O` [IPTG, isopropyl-β-thiogalactopyranoside]: the “apoptosis or cell death of non-transfected cells exposed to inducer” value is reported as “no change in apoptosis or cell death”.
